Target: Calpain-1 (Sus scrofa)
Assay: In vitro inhibition of porcine mu-calpain.

| IC50 [nM] | SMILES |
| --- | --- |
| 14 | CC(C)[C@H](NS(=O)(=O)c1ccc(Cl)cc1)C(=O)N[C@@H](C=O)Cc1ccccc1 [2-(4-Chloro-benzenesulfonylamino)-N-(1-formyl-2-phenyl-ethyl)-3-methyl-butyramide] |
| 31 | CC(C)C[C@H](C=O)NC(=O)[C@@H](NS(=O)(=O)c1ccc(Cl)cc1)C(C)C [2-(4-Chloro-benzenesulfonylamino)-N-(1-formyl-3-methyl-butyl)-3-methyl-butyramide] |
| 630 | CC(C)[C@H](NS(=O)(=O)c1ccc(F)cc1)C(=O)N[C@H](C)C=O [2-(4-Fluoro-benzenesulfonylamino)-3-methyl-N-(1-methyl-2-oxo-ethyl)-butyramide] |
| 23 | CC(C)[C@H](NS(=O)(=O)c1ccc(F)cc1)C(=O)N[C@@H](C=O)Cc1c[nH]c2ccccc12 [2-(4-Fluoro-benzenesulfonylamino)-N-[1-formyl-2-(1H-indol-3-yl)-ethyl]-3-methyl-butyramide] |
| 21000 | CC(C)C[C@H](C=O)NC(=O)[C@H](C(C)C)N(C)S(=O)(=O)c1ccc(F)cc1 [2-[(4-Fluoro-benzenesulfonyl)-methyl-amino]-N-(1-formyl-3-methyl-butyl)-3-methyl-butyramide] |
| 830 | CC(C)C[C@H](C=O)NC(=O)[C@@H](NS(C)(=O)=O)C(C)C [N-(1-Formyl-3-methyl-butyl)-2-methanesulfonylamino-3-methyl-butyramide] |
| 10 | CC(C)C[C@H](C=O)NC(=O)[C@@H](NS(=O)(=O)c1ccc2ccccc2c1)C(C)C [N-(1-Formyl-3-methyl-butyl)-3-methyl-2-(naphthalene-2-sulfonylamino)-butyramide] |

More lines, now with the values behind:

| SMILES | IC50 [nM] |
| --- | --- |
| CC(C)[C@H](NS(=O)(=O)c1ccc(Cl)cc1)C(=O)N[C@@H](C=O)Cc1c[nH]c2ccccc12 [2-(4-Chloro-benzenesulfonylamino)-N-[1-formyl-2-(1H-indol-3-yl)-ethyl]-3-methyl-butyramide] | 13 |
| CC(C)[C@H](NS(=O)(=O)c1ccc(F)cc1)C(=O)N[C@@H](C=O)Cc1ccccc1 [2-(4-Fluoro-benzenesulfonylamino)-N-(1-formyl-2-phenyl-ethyl)-3-methyl-butyramide] | 27 |
| CC(C)[C@H](NS(=O)(=O)c1ccc2ccccc2c1)C(=O)N[C@@H](C=O)Cc1ccccc1 [N-(1-Formyl-2-phenyl-ethyl)-3-methyl-2-(naphthalene-2-sulfonylamino)-butyramide] | 14 |
| Cc1ccc(S(=O)(=O)N[C@H](C(=O)N[C@@H](C=O)Cc2ccccc2)C(C)C)cc1 [N-(1-Formyl-2-phenyl-ethyl)-3-methyl-2-(toluene-4-sulfonylamino)-butyramide] | 18 |
| Cc1ccc(S(=O)(=O)N[C@H](C(=O)N[C@@H](C=O)CC(C)C)C(C)C)cc1 [N-(1-Formyl-3-methyl-butyl)-3-methyl-2-(toluene-4-sulfonylamino)-butyramide] | 28 |
